Data taken from paper PMC12667995 (bioRxiv, 2025).

Tests used:
ProT3 = target: T1, ProT3 (Arabidopsis thaliana, UniProt Q9SJP9); experiment: 3H-proline uptake and two-electrode voltage clamp, Xenopus laevis oocytes; type: cell-based; conditions: uptake: 0.5 uM 3H-L-proline, labelled compound, pH 5.0, 30 min; currents: 5 mM L-proline, pH 5.0, -60 mV
T1 sequence (Q9SJP9 1-436): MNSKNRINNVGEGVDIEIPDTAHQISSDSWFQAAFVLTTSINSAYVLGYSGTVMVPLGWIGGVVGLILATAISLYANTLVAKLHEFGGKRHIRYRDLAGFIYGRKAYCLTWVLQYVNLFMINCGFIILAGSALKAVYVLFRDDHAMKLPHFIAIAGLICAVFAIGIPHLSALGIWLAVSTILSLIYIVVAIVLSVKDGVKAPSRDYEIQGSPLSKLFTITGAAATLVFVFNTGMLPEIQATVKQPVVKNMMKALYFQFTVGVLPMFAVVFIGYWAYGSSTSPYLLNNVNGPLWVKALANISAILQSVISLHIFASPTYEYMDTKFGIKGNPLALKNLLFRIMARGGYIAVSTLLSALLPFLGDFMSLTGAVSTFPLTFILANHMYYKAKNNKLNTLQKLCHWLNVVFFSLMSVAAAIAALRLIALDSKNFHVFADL

ProT2 = target: T2, ProT2 (Arabidopsis thaliana, UniProt P92962); experiment: as above; type: cell-based; conditions: uptake: 0.5 uM 3H-L-proline, labelled compound, pH 5.0, 30 min; currents: 5 mM L-proline, pH 5.0, -60 mV
T2 sequence (P92962 1-439): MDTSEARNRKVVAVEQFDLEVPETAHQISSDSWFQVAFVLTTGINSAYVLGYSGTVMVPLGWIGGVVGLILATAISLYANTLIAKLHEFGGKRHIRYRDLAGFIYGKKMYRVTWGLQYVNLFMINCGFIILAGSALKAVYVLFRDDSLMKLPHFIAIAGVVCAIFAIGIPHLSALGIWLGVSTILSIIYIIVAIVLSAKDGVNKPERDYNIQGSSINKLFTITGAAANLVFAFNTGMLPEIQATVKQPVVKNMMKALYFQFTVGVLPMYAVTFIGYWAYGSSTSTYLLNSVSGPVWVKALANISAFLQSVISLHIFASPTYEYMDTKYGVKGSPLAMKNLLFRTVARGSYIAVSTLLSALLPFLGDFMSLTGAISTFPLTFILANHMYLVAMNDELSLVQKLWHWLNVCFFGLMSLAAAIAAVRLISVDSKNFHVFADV

SMILES: O=C(O)[C@@H]1CCCN1 [L-proline]
- 3H-proline uptake and two-electrode voltage clamp, Xenopus laevis oocytes (ProT3): Oocytes expressing ProT2 or ProT3 can import ^3H-proline into the cells from external buffer
- 3H-proline uptake and two-electrode voltage clamp, Xenopus laevis oocytes (ProT2): Oocytes expressing ProT2 or ProT3 can import ^3H-proline into the cells from external buffer
